Measurements as given in ChEMBL document CHEMBL4346660, “Cryptolepine and aromathecin based mimics as potent G-quadruplex-binding, DNA-cleavage and anticancer agents: Design, synthesis and DNA targeting-induced apoptosis” (Eur J Med Chem, 2019).
Active and inactive are the calls of the source. No cut-off for these calls is given here.

What was measured:
MGC-803 [1] = assay: Induction of apoptosis in human MGC803 cells assessed as early apoptotic cells at 0.5 uM incubated for 24 hrs by Annexin V-FITC/propidium iodide staining based flow cytometry (reference value: 0.97 +/- 0.10 %); type: functional
MGC-803 [2] = assay: Cell cycle arrest in human MGC803 cells assessed as accumulation of cells at G2/M phase incubated for 48 hrs by propidium iodide staining-based flow cytometry; type: functional
Quadruplex DNA [3] = assay: Binding affinity to human c-Kit-1 G-quadruplex DNA at 10 uM incubated for 5 mins by CD spectroscopy; type: nucleic-acid assay
MGC-803 [4] = assay: Induction of apoptosis in human MGC803 cells assessed as increase in Apaf-1 expression at 0.5 to 2.5 uM after 24 hrs by Western blot analysis; type: functional, cell-based
MGC-803 [5] = assay: Induction of apoptosis in human MGC803 cells assessed as viable cells at 2.5 uM incubated for 24 hrs by Annexin V-FITC/propidium iodide staining based flow cytometry (reference value: 96.53+/-2.11%); type: functional; settings: MGC-803, 24 h, read-out: Activity
MGC-803 [6] = assay: Induction of mitochondrial membrane depolarization in human MGC803 cells at 0.5 uM incubated for 24 hrs by JC-1 dye-based flow cytometric analysis (Rvb 3.37%); type: functional
MGC-803 [7] = assay: Induction of mitochondrial membrane depolarization in human MGC803 cells at 2.5 uM incubated for 24 hrs by JC-1 dye-based flow cytometric analysis (Rvb 3.37%); type: functional
Quadruplex DNA [8] = assay: Binding affinity to human c-Kit-1 G-quadruplex DNA assessed as Stern-Volmer quenching constant by fluorometric titration assay; type: nucleic-acid assay
NCI-H460 = assay: Antiproliferative activity against human NCI-H460 cells assessed as reduction in cell viability incubated for 48 hrs by MTT assay; type: functional, cell-based; settings: NCI-H460, 48 h
Calf thymus DNA [9] = assay: Binding affinity to calf thymus DNA at 10 uM incubated for 5 mins by CD spectroscopy; type: nucleic-acid assay; settings: Bos taurus
MGC-803 [10] = assay: Induction of apoptosis in human MGC803 cells assessed as late apoptotic cells at 2.5 uM incubated for 24 hrs by Annexin V-FITC/propidium iodide staining based flow cytometry (reference value: 0.69 +/- 0.05 %); type: functional
MGC-803 [11] = assay: Induction of DNA damage in human MGC803 cells assessed as increase in gamma-H2AX expression at 2.5 uM after 24 hrs by Western blot analysis; type: functional, cell-based
MGC-803 [12] = assay: Induction of apoptosis in human MGC803 cells assessed as increase in ROS generation incubated for 24 hrs by DCFH-DA dye-based flow cytometric analysis; type: functional, cell-based
T-24 = assay: Antiproliferative activity against human T24 cells assessed as reduction in cell viability incubated for 48 hrs by MTT assay; type: functional, cell-based; settings: T-24, 48 h
HepG2 = assay: Antiproliferative activity against human HepG2 cells assessed as reduction in cell viability incubated for 48 hrs by MTT assay; type: functional, cell-based; settings: HepG2, 48 h
Calf thymus DNA [13] = assay: Binding affinity to calf thymus DNA assessed as hyperchromic effect at 10:1 compound to DNA ratio incubated for 5 mins by UV-Vis spectroscopy; type: nucleic-acid assay; settings: Bos taurus
MGC-803 [14] = assay: Antitumor activity against human MGC803 cells xenografted in BALB/C mouse assessed as tumor growth inhibition at 6 mg/kg, ip administered every other day for 2 weeks measured during compound dosing relative to control; type: functional; settings: MGC-803, ip, 336 h, read-out: TGI
Quadruplex DNA [15] = assay: Binding affinity to human Pu27 G-quadruplex DNA at 10 uM incubated for 5 mins by CD spectroscopy; type: nucleic-acid assay
MGC-803 [16] = assay: Induction of apoptosis in human MGC803 cells assessed as necrotic cells at 0.5 uM incubated for 24 hrs by Annexin V-FITC/propidium iodide staining based flow cytometry (reference value: 1.81 +/- 0.09 %); type: functional
MGC-803 [17] = assay: Antiproliferative activity against human MGC803 cells assessed as inhibition of cell proliferation at 10 uM measured for 12 to 72 hrs by MTT assay relative to control; type: functional
MGC-803 [18] = assay: Cell cycle arrest in human MGC803 cells assessed as accumulation of cells at G2/M phase at 1 uM incubated for 48 hrs by propidium iodide staining-based flow cytometry (reference value: 13.07%); type: functional
MGC-803 [19] = assay: Induction of apoptosis in human MGC803 cells assessed as increase in Bak levels at 0.5 to 2.5 uM after 24 hrs by Western blot analysis; type: functional, cell-based
MGC-803 [20] = assay: Cell cycle arrest in human MGC803 cells assessed as down regulation of CDK2 expression at 0.5 to 2.5 uM incubated for 24 hrs by immunoblot analysis; type: functional, cell-based
MGC-803 [21] = assay: Cell cycle arrest in human MGC803 cells assessed as accumulation of cells at G1 phase at 1 uM incubated for 48 hrs by propidium iodide staining-based flow cytometry (reference value: 53.96%); type: functional
[22] = Toxicity in human MGC803 cell xenografted BALB/C mouse assessed as decrease in body weight at 6 to 12 mg/kg, ip administered every other day for 2 weeks measured during compound dosing; type: organism-based; settings: in vivo, 336 h
MGC-803 [23] = assay: Cell cycle arrest in human MGC803 cells assessed as increase in p27 expression at 0.5 to 2.5 uM incubated for 24 hrs by Western blot analysis; type: functional, cell-based
MGC-803 [24] = assay: Cell cycle arrest in human MGC803 cells assessed as accumulation of cells at S phase at 0.5 uM incubated for 48 hrs by propidium iodide staining based flow cytometry (reference value: 32.97%); type: functional
MGC-803 [25] = assay: Induction of apoptosis in human MGC803 cells assessed as early apoptotic cells at 1 uM incubated for 24 hrs by Annexin V-FITC/propidium iodide staining based flow cytometry (reference value: 0.97 +/- 0.10 %); type: functional
MGC-803 [26] = assay: Induction of apoptosis in human MGC803 cells assessed as cell shrinkage at 0.5 to 2.5 uM after 24 hrs by Hoechst 33258 staining-based fluorescence microscopic method; type: functional
Quadruplex DNA [27] = assay: Binding affinity to human Pu27 G-quadruplex DNA assessed as Stern-Volmer quenching constant by fluorometric titration assay; type: nucleic-acid assay
MGC-803 [28] = assay: Cell cycle arrest in human MGC803 cells assessed as accumulation of cells at G1 phase at 0.5 uM incubated for 48 hrs by propidium iodide staining-based flow cytometry (reference value: 53.96%); type: functional
MGC-803 [29] = assay: Antitumor activity against human MGC803 cells xenografted in BALB/C mouse assessed as tumor growth inhibition at 12 mg/kg, ip administered every other day for 2 weeks measured during compound dosing relative to control; type: functional; settings: MGC-803, ip, 336 h
Quadruplex DNA [30] = assay: Binding affinity to human HTG21 G-quadruplex DNA at 10 uM incubated for 5 mins by CD spectroscopy; type: nucleic-acid assay
MGC-803 [31] = assay: Cell cycle arrest in human MGC803 cells assessed as accumulation of cells at G2/M phase at 2.5 uM incubated for 48 hrs by propidium iodide staining-based flow cytometry (reference value: 13.07%); type: functional
MGC-803 [32] = assay: Induction of apoptosis in human MGC803 cells assessed as appearance of irregular cell shape at 2.5 uM after 24 hrs by Hoechst 33258 staining-based fluorescence microscopic method; type: functional
MGC-803 [33] = assay: Induction of apoptosis in human MGC803 cells assessed as increase in AIF expression at 0.5 to 2.5 uM after 24 hrs by Western blot analysis; type: functional, cell-based

Compound: CN(C)CCCNc1c2c(nc3ccc(F)cc13)-c1ccccc1C2
- Activity (MGC-803 [1]): 13.8%
- Activity (MGC-803 [2]): Dose-dependent effect
- Activity (Quadruplex DNA [3]): Active
- Activity (MGC-803 [4]): Active
- viability at 2.5 µM (MGC-803 [5]): 37.3%
- Activity (MGC-803 [6]): 23.6%
- Activity (MGC-803 [7]): 97.5%
- Kq (Quadruplex DNA [8]): 6.26 ×10⁶ No_unit
- IC50 (NCI-H460): 1960 nM
- Activity (Calf thymus DNA [9]): Active
- Activity (MGC-803 [10]): 7.45%
- Activity (MGC-803 [11]): Active
- Activity (MGC-803 [12]): Dose-dependent effect
- IC50 (T-24): 840 nM
- IC50 (HepG2): 1770 nM
- Activity (Calf thymus DNA [13]): Active
- inhibition in vivo at 6 mg/kg (MGC-803 [14]): 31.2%
- Activity (Quadruplex DNA [15]): Active
- Activity (MGC-803 [16]): 1.76%
- inhibition at 10 µM (MGC-803 [17]): 40 to 95%
- Activity (MGC-803 [18]): 23.02%
- Activity (MGC-803 [19]): Active
- Activity (MGC-803 [20]): Active
- Activity (MGC-803 [21]): 24.11%
- Activity [22]: Non-Toxic
- Activity (MGC-803 [23]): Active
- Activity (MGC-803 [24]): 44.73%
- Activity (MGC-803 [25]): 22%
- Activity (MGC-803 [26]): Active
- Kq (Quadruplex DNA [27]): 1.5 ×10⁷ No_unit
- Activity (MGC-803 [28]): 51.5%
- inhibition in vivo at 12 mg/kg (MGC-803 [29]): 53.2%
- Activity (Quadruplex DNA [30]): Active
- Activity (MGC-803 [31]): 31.82%
- Activity (MGC-803 [32]): Active
- Activity (MGC-803 [33]): Active
